US9290451B2 (Hoffmann-La Roche Inc., priority 2011, dated 2016)
Like-named read-outs stand apart in the source and are kept apart here.

Columns and labels:
human CB2 receptors = human CB2 receptors (Homo sapiens (Human), UniProt P34972); experiment: cAMP assay, CHO cells expressing human CB2 receptors; format: cell-based
Outline: (§1)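 Seed CHO cells 17–24 h ahead; replace medium with Krebs Ringer bicarbonate containing 1 mM IBMX for 30 min at 30 °C; add compounds for 30 min at 30 °C; lyse, add TR-FRET cAMP reagents for 2 h at room temperature; read and convert to cAMP via standard curve; fit EC50.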

human CB1 receptors = human CB1 receptors (Homo sapiens (Human), UniProt P21554); experiment: cAMP assay, CHO cells expressing human CB1 receptors; format: cell-based
Outline: as §1

[1] = CHO cells expressing human CB2, cAMP, read-out: human CB2 EC50
[2] = CHO cells expressing human CB1, cAMP, read-out: human CB1 EC50

Chain of human CB1 receptors (P21554 whole entry): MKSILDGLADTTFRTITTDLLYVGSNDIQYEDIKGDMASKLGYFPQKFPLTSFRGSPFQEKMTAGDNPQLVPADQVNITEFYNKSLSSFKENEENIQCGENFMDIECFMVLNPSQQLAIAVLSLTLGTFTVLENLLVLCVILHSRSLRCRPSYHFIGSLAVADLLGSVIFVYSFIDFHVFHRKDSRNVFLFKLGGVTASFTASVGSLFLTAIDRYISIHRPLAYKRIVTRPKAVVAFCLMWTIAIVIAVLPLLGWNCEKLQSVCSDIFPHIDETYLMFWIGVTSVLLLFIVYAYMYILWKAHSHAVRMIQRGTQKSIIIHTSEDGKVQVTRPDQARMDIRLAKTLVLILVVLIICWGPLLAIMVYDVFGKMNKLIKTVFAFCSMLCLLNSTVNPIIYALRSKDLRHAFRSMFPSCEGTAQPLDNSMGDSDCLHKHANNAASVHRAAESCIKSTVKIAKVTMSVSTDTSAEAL
Chain of human CB2 receptors (P34972 whole entry): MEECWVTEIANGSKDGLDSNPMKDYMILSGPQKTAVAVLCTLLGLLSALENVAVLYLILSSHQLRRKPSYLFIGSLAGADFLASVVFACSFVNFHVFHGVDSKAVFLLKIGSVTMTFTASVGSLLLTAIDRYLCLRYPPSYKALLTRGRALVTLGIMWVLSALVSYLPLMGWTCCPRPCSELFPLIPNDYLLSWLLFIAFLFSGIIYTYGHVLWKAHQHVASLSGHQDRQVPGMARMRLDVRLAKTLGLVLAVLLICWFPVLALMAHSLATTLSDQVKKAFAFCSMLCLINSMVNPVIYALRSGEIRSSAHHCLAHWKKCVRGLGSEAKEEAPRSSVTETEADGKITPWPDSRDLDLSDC

Compound | EC50 (human CB2 receptors) | EC50 (human CB1 receptors) | EC50 (human CB2 receptors; [1]) | EC50 (human CB1 receptors; [2])
Cc1nc(C(CC(C)C)NC(=O)c2ccc(N3CC(F)(F)C3)c(OCC3CC3)n2)no1 (stereo not shown) [Example 272, 6-Cyclopropylmethoxy-5-(3,3-difluoro-azetidin-1-yl)-pyridine-2-carboxylic acid [3-methyl-1-(5-methyl-[1,2,4]oxadiazol-3-yl)-butyl]-amide] | 4.3 nM | > 10000 nM |  | 
CC(C)CC(C)(CO)NC(=O)c1ccc(N2CC(F)(F)C2)c(OCC2CC2)n1 (stereo not shown) [Example 273, 6-Cyclopropylmethoxy-5-(3,3-difluoro-azetidin-1-yl)-pyridine-2-carboxylic acid (1-hydroxymethyl-1,3-dimethyl-butyl)-amide] | 5.4 nM | 1250 nM |  | 
CCC(CC)(NC(=O)c1ccc(C2CC2)c(OCC2CC2)n1)C(=O)N1CCC1 [Example 274, 5-Cyclopropyl-6-cyclopropylmethoxy-pyridine-2-carboxylic acid [1-(azetidine-1-carbonyl)-1-ethyl-propyl]-amide] |  |  | 1.6 nM | 351 nM
CCC(CC)(NC(=O)c1ccc(C2CC2)c(OCC2CC2)n1)C(=O)NCCOC [Example 275, 5-Cyclopropyl-6-cyclopropylmethoxy-pyridine-2-carboxylic acid [1-ethyl-1-(2-methoxy-ethylcarbamoyl)-propyl]-amide] |  |  | 51.8 nM | > 10000 nM
CCN(C)C(=O)C(CC)(CC)NC(=O)c1ccc(C2CC2)c(OCC2CC2)n1 [Example 276, 5-Cyclopropyl-6-cyclopropylmethoxy-pyridine-2-carboxylic acid [1-ethyl-1-(ethyl-methyl-carbamoyl)-propyl]-amide] |  |  | 24.6 nM | > 10000 nM
CC(C)C[C@H](NC(=O)c1cccc(Cc2ccc(F)cc2)n1)C(N)=O [Example 277, 6-(4-Fluoro-benzyl)-pyridine-2-carboxylic acid ((S)-1-carbamoyl-3-methyl-butyl)-amide] |  |  | 16.6 nM | 1700 nM
O=C(N[C@H](c1ccccn1)C(F)(F)F)c1cccc(Cc2ccc(F)cc2)n1 [Example 278, 6-(4-Fluoro-benzyl)-pyridine-2-carboxylic acid ((R)-2,2,2-trifluoro-1-pyridin-2-yl-ethyl)-amide] |  |  | 20.2 nM | 357 nM
CC(C)[C@@](C)(CO)NC(=O)c1ccc(C2CC2)c(OCC2CC2)n1 [Example 279, 5-Cyclopropyl-6-cyclopropylmethoxy-pyridine-2-carboxylic acid ((S)-1-hydroxymethyl-1,2-dimethyl-propyl)-amide] |  |  | 23 nM | > 10000 nM
CC1(COc2nc(C(=O)NC(C)(C)c3nccs3)ccc2Br)COC1 [Example 280, 5-Bromo-6-(3-methyl-oxetan-3-ylmethoxy)-pyridine-2-carboxylic acid (1-methyl-1-thiazol-2-yl-ethyl)-amide] |  |  | 118 nM | 1490 nM
CC1(COc2nc(C(=O)NC3(c4nccs4)COC3)ccc2Br)COC1 [Example 281, 5-Bromo-6-(3-methyl-oxetan-3-ylmethoxy)-pyridine-2-carboxylic acid (3-thiazol-2-yl-oxetan-3-yl)-amide] |  |  | 447 nM | > 10000 nM
O=C(NC1(c2nccs2)COC1)c1ccc(Br)c(OCC(F)(F)F)n1 [Example 282, 5-Bromo-6-(2,2,2-trifluoro-ethoxy)-pyridine-2-carboxylic acid (3-thiazol-2-yl-oxetan-3-yl)-amide] |  |  | 368 nM | > 10000 nM
CC1(COc2nc(C(=O)NC(c3ccccn3)C(F)(F)F)ccc2Br)COC1 (stereo not shown) [Example 283, 5-Bromo-6-(3-methyl-oxetan-3-ylmethoxy)-pyridine-2-carboxylic acid (2,2,2-trifluoro-1-pyridin-2-yl-ethyl)-amide] |  |  | 109 nM | > 10000 nM
CCC(CC)(NC(=O)c1ccc(C2CC2)c(OCC2CC2)n1)C(=O)NCC1CC1 [Example 284, 5-Cyclopropyl-6-cyclopropylmethoxy-pyridine-2-carboxylic acid [1-(cyclopropylmethyl-carbamoyl)-1-ethyl-propyl]-amide] |  |  | 27 nM | > 10000 nM
CC(C)(NC(=O)c1ccc(C2CC2)c(OCC2CC2)n1)c1ccccn1 [Example 285, 5-Cyclopropyl-6-cyclopropylmethoxy-pyridine-2-carboxylic acid (1-methyl-1-pyridin-2-yl-ethyl)-amide] |  |  | 31.6 nM | 703 nM
CNC(=O)[C@H](CC(C)(C)C)NC(=O)c1cccc(Cc2ccc(F)cc2)n1 [Example 286, 6-(4-Fluoro-benzyl)-pyridine-2-carboxylic acid ((S)-3,3-dimethyl-1-methylcarbamoyl-butyl)-amide] |  |  | 8.2 nM | 1870 nM
CCC(CC)(NC(=O)c1ccc(C2CC2)c(OCC2CC2)n1)C(=O)N1CC(F)(F)C1 [Example 287, 5-Cyclopropyl-6-cyclopropylmethoxy-pyridine-2-carboxylic acid [1-(3,3-difluoro-azetidine-1-carbonyl)-1-ethyl-propyl]-amide] |  |  | 3.6 nM | > 10000 nM
CC(C)(NC(=O)c1ccc(N2CC(F)(F)C2)c(OCC(F)(F)F)n1)c1nccs1 [Example 288, 5-(3,3-Difluoro-azetidin-1-yl)-6-(2,2,2-trifluoro-ethoxy)-pyridine-2-carboxylic acid (1-methyl-4-thiazol-2-yl-ethyl)-amide] |  |  | 163 nM | > 10000 nM
CCOC(=O)C(CC)(CC)NC(=O)c1ccc(N2CCCC2)c(OCC2CC2)n1 [Example 289, 2-[(6-Cyclopropylmethoxy-5-pyrrolidin-1-yl-pyridine-2-carbonyl)-amino]-2-ethyl-butyric acid ethyl ester] |  |  | 1.4 nM | 234 nM
CN1CC(NC(=O)c2ccc(N3CC(F)(F)C3)c(OCC3CC3)n2)CC1=O (stereo not shown) [Example 290, 6-Cyclopropylmethoxy-5-(3,3-difluoro-azetidin-1-yl)-pyridine-2-carboxylic acid (1-methyl-5-oxo-pyrrolidin-3-yl)-amide] |  |  | 846 nM | > 10000 nM
CCC(CC)(NC(=O)c1ccc(N2CCCC2)c(OCC2CC2)n1)C(=O)O [Example 291, 2-[(6-Cyclopropylmethoxy-5-pyrrolidin-1-yl-pyridine-2-carbonyl)-amino]-2-ethyl-butyric acid] |  |  | 413 nM | > 10000 nM
O=C(NC1CCS(=O)(=O)C1)c1ccc(N2CC(F)(F)C2)c(OCC2CC2)n1 (stereo not shown) [Example 292, 6-Cyclopropylmethoxy-5-(3,3-difluoro-azetidin-1-yl)-pyridine-2-carboxylic acid (1,1-dioxo-tetrahydro-1λ^6-thiophen-3-yl)-amide] |  |  | 874 nM | > 10000 nM
O=C(NNC1CCS(=O)(=O)C1)c1ccc(N2CC(F)(F)C2)c(OCC2CC2)n1 (stereo not shown) [Example 293, 6-Cyclopropylmethoxy-5-(3,3-difluoro-azetidin-1-yl)-pyridine-2-carboxylic acid N′-(1,1-dioxo-tetrahydro-1λ^6-thiophen-3-yl)-hydrazide] |  |  | 790 nM | > 10000 nM
Cc1csc(C(C)(C)NC(=O)c2ccc(C3CC3)c(OCC3CC3)n2)n1 [Example 294, 5-Cyclopropyl-6-cyclopropylmethoxy-pyridine-2-carboxylic acid [1-methyl-1-(4-methyl-thiazol-2-yl)-ethyl]-amide] |  |  | 112 nM | > 10000 nM
